In a compilation of properties of binary mixtures (doi:10.1016/j.molliq.2020.114495):

Assay: xn = mol fraction of the nth substance listed
Details: 100 kPa

OCCO + O=S(=O)([N-]S(=O)(=O)C(F)(F)F)C(F)(F)F.[Li+]
x2 = 0
Details	viscosity [mPa·s]
303 K	13.53
318.1 K	9.59
333 K	7.47

O=S(=O)([N-]S(=O)(=O)C(F)(F)F)C(F)(F)F.[Li+] + OCCO
Details	electrical conductivity, 303 K [S/m]	electrical conductivity, 318.1 K [S/m]	electrical conductivity, 333 K [S/m]	viscosity, 303 K [mPa·s]	viscosity, 318.1 K [mPa·s]	viscosity, 333 K [mPa·s]
x1 = 0.143	0.129	0.296	0.516	18.14	12.79	8.55
x1 = 0.167	0.275	0.604	0.928	19.25	13.57	8.71
x1 = 0.2	0.305	0.738	1.2	21.4	14.53	10.21
x1 = 0.25	0.291	0.623	1.07	23.79	16.35	10.61
x1 = 0.333	0.281	0.559	0.88	30.24	18.69	11.02
x1 = 0.5	0.275	0.534	–	58.8	35.26	–
